Results reported in patent US20030170252A1, “Antibody compositions specific for p33QIK and p63Krs1 polypeptides and uses thereof” (priority 2000, published 2003).
Residues, ends and D or L forms follow the SMILES beside them. *: point of attachment. Cbz = O=C(OCc1ccccc1)*; CH2F = FC*

Key:
p33^QIK [1] = assay: In-gel kinase assay (MBP substrate) of p33^QIK activity in treated NIH3T3 cultures; format: cell-based, mouse
Procedure: (§1) Mouse NIH3T3 fibroblast cultures were maintained in Dulbecco's modified Eagle's medium (DMEM)(BRL/GIBCO, Grand Island, N.Y.) supplemented with 5% calf serum, 50 units/ml penicillin, and 5 mcg/ml streptomycin, and cultivated at 37° C.
(§2) Mouse 10T1/2 fibroblast cultures were maintained in Basal medium Eagle (BRL/GIBCO, Grand Island, N.Y.) supplemented with 10% heat-inactivated fetal bovine serum, 50 U/ml penicillin, and 5 μg/ml streptomycin, and cultivated at 37° C. Cells synchronized in quiescent state were growth-arrested by serum starvation for 48 hr. Actinomycin D (ActD), cycloheximide (CHXM), 12-0-tetradecanoylphorbol 13-acetate (TPA), staurosporine (STSP) (Sigma Chemical, St. Louis, Mo.), sodium fluoride (NaF), sodium orthovanadate (Na3VO4) (Fisher Scientific, Pittsburgh, Pa.), and FR901228 (FR)(NCI, Frederick, Md.) were diluted in cultured medium before treatment of cultured cells. A broad range caspase inhibitor Z-Asp-[(2,6-dichlorobenzoyl)oxy]methane (Z-D-CH2-DCB) (Dolle et al., 1994; Mashima et al., 1995)(CALBIOCHEM, La Jolla, Calif.) was dissolved in dimethyl sulfoxide and diluted in cultured medium for treatment. Recombinant human Caspase-3 was purchased from Alexis Biochemicals (San Diego, Calif.). Protein phosphatase 1 (PP1) and Lambda protein phosphatase (λPPase) were purchased from NE BioLabs (Beverly, Mass.). Production of rabbit polyclonal antibody Ab-KQ to p63^Krsl and p33^QIK was made using peptide sequences of Krsl as antigens (Alpha Diagnostic International, San Antonio, Tex.). UV irradiation was carried out using a UV Crosslinker (Stratagene, La Jolla, Calif.).
(§3) Cells were lysed with 30 strokes of a tight-fitting Dounce homogenizer in lysis A buffer (10 mM KH2PO4, 1 mM EDTA, 5 mM EGTA, 10 mM MgCl2, 50 mM […], 1 mM Na3VO4, 2 mM dithiothreitol) (Wang et al., 1992). Cytoplasmic proteins (S20) were isolated from the supernatants after centrifugation of crude lysates at 20,000 ×g for 20 min. Protein concentration in S20 was measured by using the BCA assay (Pierce, Rockford, Ill.). Immunoprecipitation of p33^QIK was carried out by incubation of S20 with the specific antibody Ab-KQ at 0° C. for 1 hr. Immune complexes were adsorbed to Pansorbin (Staphylococcus aureus) (CALBIOCHEM, La Jolla, Calif.) at 0° C. for 30 min and washed with STE buffer (50 mM Tris-HCl, pH 7.0, 150 mM NaCl, 1 mM Na2 EDTA) supplemented with 0.1 mM DTT and 0.1% NP-40 and ST buffer supplemented with 1 mM DTT.
(§4) MBP (BRL/GIBCO, Grand Island, N.Y.) was used as a substrate in the assay and the in-gel kinase assay was performed as previously described (Wang et al., 1992). Briefly, 10% SDS-polyacrylamide gel (SDS-PAG) was copolymerized with 0.4 mg/ml MBP. Cellular proteins were resolved in the MBP-immobilized SDS-PAG, followed by rinsing the gel with 20% isopropanol in buffer B (100 mM Tris, pH 8, 5 mM β-mercaptoethanol). The gel was denatured in buffer B supplemented with 6 M guanidine-HCl and renatured with buffer B supplemented with 0.04% Tween 40 (Kameshita and Fujisawa, 1989). Kinase reaction was carried out by incubating the gel with kinase buffer (20 Mm Tris, pH 7.2, 10 mM MgCl2, 15 mM β-glycerolphosphate) supplemented with 50 μM γATP and 50 μCi of [γ-^32P]ATP at 22° C. for 30 min. The gel was washed with 1% sodium pyrophosphate in 5% trichloroacetic acid. Protein kinases which phosphorylated MBP in the gel were detected by autoradiography of the [γ^32P]-labeled MBP.

p33^QIK [2] = assay: In-gel kinase assay of p33^QIK activity in 10T1/2 cultures; format: cell-based; conditions: mouse fibroblast 10T1/2 cultures treated with FR
Procedure: as §2, with “Production of rabbit polyclonal antibody Ab-KQ to p63^Krsl and p33^QIK was made using peptide sequences of Krsl as antigens (Alpha Diagnostic International, San Antonio, Tex.). UV irradiation was carried out using a UV Crosslinker (Stratagene, La Jolla, Calif.).” left out
(§5) MBP (BRL/GIBCO, Grand Island, N.Y.) was used as a substrate in the assay and the in-gel kinase assay was performed as previously described (Wang et al., 1992). […] Protein kinases which phosphorylated MBP in the gel were detected by autoradiography of the [γ^32P]-labeled MBP.

33 kDa-MBP kinase = conditions: MCF-7 and MDA-MB361 cells treated with FR (Rajgolikar et al., 1998); cited from earlier work
NIH3T3 cells = assay: Flow cytometric analysis of DNA content (cell cycle phase); format: cell-based, mouse
Procedure: After rinsing with phosphate buffered saline (PBS), cells were trypsinized from culture dishes, rinsed with Ca^++ and Mg^++ free PBS, fixed in 70% cold ethanol, and stained with 10 μg/ml propidium iodide (PI) for 30 min (Darzynkiewicz et al., 1995). Flow cytometry analysis was performed on the Coulter EPICS Elite Cytometer (Hialeah, Fla.) using 15 mW air-cooled argon laser producing 488-nm light in which PI fluorescence light emission is collected with a 610LPDC filter. Extended analysis of DNA content and calculation of the percentage of cells in each phase of the cell cycle were performed on Multicycle software (Phoenix Flow System, San Diego, Calif.).

p63^Krsl = assay: In-gel kinase assay (MBP substrate) of p63^Krsl activity in treated NIH3T3 cultures; format: cell-based, mouse
Procedure: as §1
Mouse 10T1/2 fibroblast cultures were maintained in Basal medium Eagle (BRL/GIBCO, Grand Island, N.Y.) supplemented with 10% heat-inactivated fetal bovine serum, 50 U/ml penicillin, and 5 μg/ml streptomycin, and cultivated at 37° C. Cells synchronized in quiescent state were growth-arrested by serum starvation for 48 hr. […]
Cells were lysed with 30 strokes of a tight-fitting Dounce homogenizer in lysis A buffer (10 mM KH2PO4, 1 mM EDTA, 5 mM EGTA, 10 mM MgCl2, 50 mM […], 1 mM Na3VO4, 2 mM dithiothreitol) (Wang et al., 1992). […] Protein concentration in S20 was measured by using the BCA assay (Pierce, Rockford, Ill.). […]
as §5

cells = conditions: cited from earlier work
p44/42^Erk = format: cell-based, mouse; conditions: quiescent NIH3T3 cultures (48 hr serum starvation) stimulated with reagent, 1-6 hr
Procedure: as §1, §2, §3, §4

[3] = proliferating NIH3T3 cultures, 5 nM FR, 24 hr
[4] = NIH3T3 synchronized by serum starvation, 18 hr serum, then 10 nM STSP for 24 hr
[5] = quiescent NIH3T3 cultures (48 hr serum starvation) stimulated with reagent, 1-6 hr

In the case of `C/C=C1\NC(=O)[C@H]2CSSCC/C=C/[C@H](CC(=O)N[C@H](C(C)C)C(=O)N2)OC(=O)[C@H](C(C)C)NC1=O` [FR, FR901228], the “kinase activity of p33^QIK” value (p33^QIK [1]; [3]) is listed as “p33^QIK activity was induced”, the “kinase activity of p33^QIK” value (p33^QIK [2]) is listed as “Activation of p33^QIK was also detected” and the “33 kDa-MBP kinase activity” value (33 kDa-MBP kinase) is listed as “induction of a 33 kDa-MBP kinase activity”. The “cell population in each phase of the cell cycle” value (NIH3T3 cells; [3]) was “growth arrest of cells in G0/G1 phase was evident”.

With `COC(=O)C[C@H](NC(=O)[C@H](C)NC(=O)[C@@H](NC(=O)OCc1ccccc1)C(C)C)C(=O)CF` [Z-VAD-FMK] (Cbz-Val-Ala-Asp(OMe)-CH2F) the “induction of p33^QIK activity” value (p33^QIK [1]; cultures preincubated with caspase inhibitor prior to serum starvation and osmotic stress) was “neither blocked induction of p33^QIK activity”.

For `CN[C@@H]1C[C@H]2O[C@@](C)([C@@H]1OC)n1c3ccccc3c3c4c(c5c6ccccc6n2c5c31)C(=O)NC4` [STSP, staurosporine], the “kinase activity of p63^Krsl” value (p63^Krsl; quiescent NIH3T3 cultures, 100 nM STSP, 2 hr) is listed as “activated p63^Krsl”, the “kinase activity of p33^QIK” value (p33^QIK [1]; [4]) is listed as “activation of p33^QIK was detected” and the “concentration arresting cells in G2 phase” value (cells; high concentration) is listed as 100 to 150 nM. The “concentration arresting cells in early G1 phase” value (cells; low concentration) was 2 to 20 nM and the “cell population in each phase of the cell cycle” value (NIH3T3 cells; [4]) was “a major population of cells was arrested in G0/G1 state”.

With sodium orthovanadate [sodium vanadate] the “kinase activity of p44/42^Erk” value (p44/42^Erk) was “profound and constant activation of p44/42^Erk” and the “kinase activity of p33^QIK” value (p33^QIK [1]; [5]) was “accelerated deactivation of p33^QIK”.

In the case of `C=C1[C@@H](O)[C@@H]2O[C@]3(CC[C@H](/C=C/[C@@H](C)[C@@H]4CC(C)=C[C@@]5(O[C@H](C[C@@](C)(O)C(=O)O)CC[C@H]5O)O4)O3)CC[C@H]2O[C@@H]1[C@@H](O)C[C@H](C)[C@H]1O[C@@]2(CCCCO2)CC[C@H]1C` [okadaic acid], the “kinase activity of p63^Krsl” value (p63^Krsl; quiescent NIH3T3 cultures stimulated with reagent) is reported as “activated p63^Krsl” and the “kinase activity of p33^QIK” value (p33^QIK [1]; [5]) is reported as “did not result in deactivation of p33^QIK”.
